Test system: 422866-222-R5-J1-PDC complex spheroids viability
Test: Anticancer human tumor 422866-222-R5-J1-PDC patient-derived pancreatic adenocarcinoma cell line growth inhibition [RAS]
Details: for IC50: curve of first compound; for viability, T/C: stronger effect = lower value
Source text: RAS pathway inhibitors in Combinations in Complex Spheroids
A high-throughput screen of multi-cell type tumor spheroids was designed to identify active combinations of RAS pathway inhibitors and targeted small molecules. Complex spheroids include a stromal component modeled by human endothelial cells (HUVEC) and fibroblasts modeled by human mesenchymal stem cells (MSCs). The concentration ranges selected for each drug and investigational agent were based upon clinically achievable concentrations if the clinical Cmax of the agent was known.
Compounds. The drugs and investigational agents: abemaciclib (NSC768073), cobimetinib (NSC768068), divarasib (GDC6063, NSC841802), docetaxel (NSC628503), GDC-1971 (RLY-1971, NSC841576), gemcitabine (NSC613327), inavolisib (NSC800729), ipatasertib (NSC767898), KB-0742 (NSC834161), MRTX-1133 (NSC836407), osimertinib (NSC779217), RMC-4630 (NSC839698), RMC-6236 (NSC851965), RMC-6291 (NSC852671), Ro-3306 (NSC812927), sapanisertib (NSC764658), SN-38 (NSC673596), staurosporine (NSC755774), SY5609 (NSC837396), and tovorafenib (DAY101, NSC766906), were obtained from the National Cancer Institute (NCI) Developmental Therapeutics Program Chemical Repository. The FDA-approved anticancer drug set is available from the NCI Developmental Therapeutics Program. […] The stock solutions were prepared in dimethyl sulfoxide (DMSO, Sigma-Aldrich, St. Louis, MO, cat. D2650) at 800-fold the tested concentration and stored at -70 degrees C prior to their use. All drugs and investigational agents were tested over a range starting from a high concentration at or near the clinical Cmax and decreasing in half-log increments. If the clinical Cmax for an agent had not been determined, the highest concentration tested was 10 microM.
Cell Culture. All cells were maintained in an incubator at 37 degrees C and 5% CO2 with 95% humidity. The PDC lines were cultured according to standard operating procedures established by the NCI PDMR. All PDCs were thawed and cultured in Matrigel-coated flasks prepared with a working solution of 1X Ham's F-12 nutrient mix, without supplementation (Invitrogen, Waltham, MA, cat. 11765054), 100 U/mL penicillin-streptomycin (Invitrogen, cat. 15140122), and 2.5% Matrigel (Corning Inc., Corning, NY, cat. 354248) for the first three passages. The 362531-283-R-J2-PDC and 782815-120-R-J1-PDC lines were cultured in 6C/Colon 1B media, which includes advanced DMEM/F-12 (Thermo Fisher Scientific, cat. 12634028), 10 mM HEPES (Thermo Fisher Scientific, cat. 15630080), 1X GlutaMAX supplement (Thermo Fisher Scientific, cat. 35050061), 0.1 mg/mL primocin (InvivoGen, San Diego, CA, cat. ant-pm-2), 10% defined fetal bovine serum, heat inactivated (HyClone Laboratories Inc., Logan, UT, cat. SH30070.03HI), 50% L-WRN conditioned media (ATCC, cat. CRL-3276), 1.25 mM N-Acetyl-L-cysteine (Sigma-Aldrich, cat. A9165), 10 mM nicotinamide (Sigma-Aldrich, cat. N0636), 1X B-27 supplement (Thermo Fisher Scientific, cat. 17504044), 1X N-2 supplement (Thermo Fisher Scientific, cat. 17502048), 50 ng/mL human EGF (Thermo Fisher Scientific, cat. PHG0311), and 10 microM Y-27632 dihydrochloride (Tocris Bioscience, cat. 1254). The K12877-001-R-J1-PDC line was cultured in 6I media, which includes all 6C/Colon 1B media plus 10 ng/mL human FGF-10 (PeproTech, cat. 100-26), 1 ng/mL human FGF-2 (PeproTech, cat. 100-18B), 1 µM prostaglandin E2 (Tocris Bioscience, cat. 2296), […] hydrocortisone (Sigma-Aldrich, cat. H4001), and […] bovine insulin (Sigma-Aldrich, cat. I6634). The K86415-001-R-J1-PDC line was cultured in 6D media, which includes all 6C/Colon 1B media components minus the L-WRN conditioned media. The 485176-168-R4-J1-PDC was cultured in PANC media, which includes all 6C/Colon 1B media plus 100 ng/mL human FGF-10 (PeproTech, cat. 100-26), 500 nM SB-431542 (Selleckchem, cat. S1067), and 10 nM gastrin (Tocris Bioscience, cat. 3006). […]

[1] = second compound 0.0316 µM, first compound 0.0316 µM
[2] = second compound 0.0316 µM, first compound 0.1 µM
[3] = second compound 0.0316 µM, first compound 0.316 µM
[4] = second compound 0.0316 µM, first compound 1 µM
[5] = second compound 0.1 µM, first compound 0.0316 µM
[6] = second compound 0.1 µM, first compound 0.1 µM
[7] = second compound 0.1 µM, first compound 0.316 µM
[8] = second compound 0.1 µM, first compound 1 µM
[9] = second compound 0.316 µM, first compound 0.0316 µM
[10] = second compound 0.316 µM, first compound 0.1 µM
[11] = second compound 0.316 µM, first compound 0.316 µM
[12] = second compound 0.316 µM, first compound 1 µM
[13] = second compound 1 µM, first compound 0.0316 µM
[14] = second compound 1 µM, first compound 0.1 µM
[15] = second compound 1 µM, first compound 0.316 µM
[16] = second compound 1 µM, first compound 1 µM
[17] = second compound 3.16 µM, first compound 0.0316 µM
[18] = second compound 3.16 µM, first compound 0.1 µM
[19] = second compound 3.16 µM, first compound 0.316 µM
[20] = second compound 3.16 µM, first compound 1 µM
[21] = second compound 10 µM, first compound 0.0316 µM
[22] = second compound 10 µM, first compound 0.1 µM
[23] = second compound 10 µM, first compound 0.316 µM
[24] = second compound 10 µM, first compound 1 µM
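Wherever viability, T/C is given: 100% = DMSO vehicle control viability.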

`CC(Nc1ccc2c(c1)OCCn1cc(N3C(=O)OCC3C(F)F)nc1-2)C(N)=O` (centres undefined) + C#Cc1c(F)ccc2cc(O)cc(-c3ncc4c(N5CC6CCC(C5)N6)nc(OCC56CCCN5CC(F)C6)nc4c3F)c12 showed an IC50 (second compound 0.0316 µM) of 0.0935 µM, an IC50 (second compound 0.1 µM) of 0.0815 µM and an IC50 (second compound 0.316 µM) of 0.0334 µM. It also gave an IC50 (second compound 1 µM) of under 0.0316 µM, an IC50 (second compound 3.16 µM) of under 0.0316 µM and an IC50 (second compound 10 µM) of under 0.0316 µM. For the same molecule, the viability, T/C [1] was 77%, the viability, T/C [2] was 46.7% and the viability, T/C [3] was 33.1%. It also gave a viability, T/C [4] of 37.9%, a viability, T/C (second compound 0.0316 µM, first compound 3.16 µM) of 26.1% and a viability, T/C (second compound 0.0316 µM, first compound 10 µM) of 22.2%. It also gave a viability, T/C [5] of 73.3%, a viability, T/C [6] of 44.8% and a viability, T/C [7] of 30.9%. The viability, T/C [8] was 24.7%, the viability, T/C (second compound 0.1 µM, first compound 3.16 µM) was 23% and the viability, T/C (second compound 0.1 µM, first compound 10 µM) was 19.9%. For the same molecule, the viability, T/C [9] was 50.6%, the viability, T/C [10] was 38.6% and the viability, T/C [11] was 29.8%. It also gave a viability, T/C [12] of 21.6%, a viability, T/C (second compound 0.316 µM, first compound 3.16 µM) of 19% and a viability, T/C (second compound 0.316 µM, first compound 10 µM) of 18.7%. For the same molecule, the viability, T/C [13] was 37.3%, the viability, T/C [14] was 26.5% and the viability, T/C [15] was 22.5%. The viability, T/C [16] was 14.5%, the viability, T/C (second compound 1 µM, first compound 3.16 µM) was 13.6% and the viability, T/C (second compound 1 µM, first compound 10 µM) was 12.7%. The viability, T/C [17] was 22.2%, the viability, T/C [18] was 19.2% and the viability, T/C [19] was 13%. It also gave a viability, T/C [20] of 10.5%, a viability, T/C (second compound 3.16 µM, first compound 3.16 µM) of 9.41% and a viability, T/C (second compound 3.16 µM, first compound 10 µM) of 9.38%. It also gave a viability, T/C [21] of 13.7%, a viability, T/C [22] of 11.8% and a viability, T/C [23] of 8.74%. The viability, T/C [24] was 6.04%, the viability, T/C (second compound 10 µM, first compound 3.16 µM) was 7.1% and the viability, T/C (second compound 10 µM, first compound 10 µM) was 7.04%.

`O=C(c1ccc(F)c(F)c1Nc1ccc(I)cc1F)N1CC(O)([C@@H]2CCCCN2)C1` + C#Cc1c(F)ccc2cc(O)cc(-c3ncc4c(N5CC6CCC(C5)N6)nc(OCC56CCCN5CC(F)C6)nc4c3F)c12 was tested, and the IC50 (second compound 0.0316 µM) was 0.0452 µM, the IC50 (second compound 0.1 µM) was 0.274 µM and the IC50 (second compound 0.316 µM) was 0.0198 µM. For the same molecule, the IC50 (second compound 1 µM) was 0.00362 µM, the IC50 (second compound 3.16 µM) was under 0.00316 µM and the IC50 (second compound 10 µM) was under 0.00316 µM. For the same molecule, the viability, T/C (second compound 0.0316 µM, first compound 0.00316 µM) was 70.1%, the viability, T/C (second compound 0.0316 µM, first compound 0.01 µM) was 82.2% and the viability, T/C [1] was 52.4%. It also gave a viability, T/C [2] of 47.6%, a viability, T/C [3] of 41.5% and a viability, T/C [4] of 44.6%. For the same molecule, the viability, T/C (second compound 0.1 µM, first compound 0.00316 µM) was 81.9%, the viability, T/C (second compound 0.1 µM, first compound 0.01 µM) was 71.6% and the viability, T/C [5] was 65.8%. It also gave a viability, T/C [6] of 53.6%, a viability, T/C [7] of 49.1% and a viability, T/C [8] of 46.6%. It also gave a viability, T/C (second compound 0.316 µM, first compound 0.00316 µM) of 75.4%, a viability, T/C (second compound 0.316 µM, first compound 0.01 µM) of 53.2% and a viability, T/C [9] of 46.7%. It also gave a viability, T/C [10] of 43.2%, a viability, T/C [11] of 34.9% and a viability, T/C [12] of 33.3%. It also gave a viability, T/C (second compound 1 µM, first compound 0.00316 µM) of 50%, a viability, T/C (second compound 1 µM, first compound 0.01 µM) of 45.3% and a viability, T/C [13] of 31.3%. The viability, T/C [14] was 32.1%, the viability, T/C [15] was 26.9% and the viability, T/C [16] was 26.4%. The viability, T/C (second compound 3.16 µM, first compound 0.00316 µM) was 38.2%, the viability, T/C (second compound 3.16 µM, first compound 0.01 µM) was 26.1% and the viability, T/C [17] was 24.6%. It also gave a viability, T/C [18] of 24%, a viability, T/C [19] of 19.9% and a viability, T/C [20] of 15.7%. For the same molecule, the viability, T/C (second compound 10 µM, first compound 0.00316 µM) was 19.8%, the viability, T/C (second compound 10 µM, first compound 0.01 µM) was 17.8% and the viability, T/C [21] was 17.9%. The viability, T/C [22] was 14%, the viability, T/C [23] was 12.2% and the viability, T/C [24] was 14.2%.
